Measured values published in patent publication US11090386B2, “Method for suppressing bitterness of quinoline derivative” (Eisai R&D Management Co., Ltd., priority 2015, dated 2021).
Counter-ions that a name gives are not always drawn.

Columns and labels:
[1] = Bitterness measurement with taste perception apparatus, relative bitterness to Comparative Example 1; format: physicochemical; settings: AC0 taste sensor; lenvatinib mesylate 9.8 mg/mL (8 mg/mL free form) in 10 mM potassium chloride aqueous solution, additive added, stirred 30 minutes, supernatant; average of three measurements
Experimental: Herein, the “bitterness” of Compound 1 or the pharmaceutically acceptable salt thereof is measured by the following method. A solution of Compound 1 at a concentration of 8 mg/mL as a free form is prepared by dissolving Compound 1 or the pharmaceutically acceptable salt thereof in a 10 mM potassium chloride aqueous solution. To the thus obtained solution, an additive is added if necessary, and the resultant is stirred for 30 minutes and then centrifuged to give a liquid phase component. The bitterness of the liquid phase component is measured using a taste sensor (ACO) for measuring bitterness, and the thus obtained value is used as a bitterness index. […]
The measurement with the taste perception apparatus was performed four times on each sample, and three measurement results of the second to fourth measurements were used for the analysis. […] It is noted that the relative bitterness was calculated using merely data obtained through a series of continuous measurements. Relative bitterness to Comparative Example 1(%)=(Measured value of each sample−Measured value of 10 mM potassium chloride aqueous solution)/(Measured value of Comparative Example 1—Measured value of 10 mM potassium chloride aqueous solution)×100%

[2] = Relative comparison of bitterness with taste perception apparatus (relative to Reference Example 7); settings: aqueous solution of lenvatinib mesylate at a concentration of 1.225 mg/mL or more
Experimental: Herein, the “bitterness” of Compound 1 or the pharmaceutically acceptable salt thereof is measured by the following method. A solution of Compound 1 at a concentration of 8 mg/mL as a free form is prepared by dissolving Compound 1 or the pharmaceutically acceptable salt thereof in a 10 mM potassium chloride aqueous solution. To the thus obtained solution, an additive is added if necessary, and the resultant is stirred for 30 minutes and then centrifuged to give a liquid phase component. The bitterness of the liquid phase component is measured using a taste sensor (ACO) for measuring bitterness, and the thus obtained value is used as a bitterness index.
As a blank solution for correction, a 10 mM potassium chloride aqueous solution was subjected to the measurement. […] Relative bitterness to Reference Example 7 was calculated in accordance with the following expression, and an average of the three measurement values is shown in Table 4 and FIG. 1. It is noted that the relative bitterness was calculated using merely data obtained through a series of continuous measurements. Relative bitterness to Reference Example 7(%)=(Measured value of each sample−Measured value of 10 mM potassium chloride aqueous solution)/(Measured value of Reference Example 7—Measured value of 10 mM potassium chloride aqueous solution)×100%

Structure (SMILES) | Relative Bitterness to Comparative Example 1 (%) [1] | bitterness compared with a 0.1 mM quinine hydrochloride aqueous solution [2]
COc1cc2nccc(Oc3ccc(NC(=O)NC4CC4)c(Cl)c3)c2cc1C(N)=O [Comparative Example 1, Lenvatinib Mesylate] | 100% | 
COc1cc2nccc(Oc3ccc(NC(=O)NC4CC4)c(Cl)c3)c2cc1C(N)=O [lenvatinib mesylate, Lenvatinib Mesylate] |  | more bitter than a 0.1 mM quinine hydrochloride aqueous solution
